Literature values in patent US11440912B2, “Process for the preparation of ribociclib and its salts” (FRESENIUS KABI ONCOLOGY LIMITED, priority 2017, dated 2022).

Details: at 80% RH

CN(C)C(=O)c1cc2cnc(Nc3ccc(N4CCNCC4)cn3)nc2n1C1CCCC1.O=C(O)CCC(=O)O [ribociclib succinate]
ribociclib succinate converts to hydrated form from the non-hydrated form: 0.52%
